pIC50: −log10 of the molar value.
System: HUVEC/MSC spheroids viability
Experiment: Human HUVEC/MSC cell line growth inhibition [KRAS2];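 for viability, T/C: percent of DMSO vehicle control luminescence so 100% = untreated viability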
Settings: for viability, T/C: stronger effect = lower value
Summary of the method: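 Stroma-only multicellular spheroids, formed from HUVEC and human MSCs at passages </=5, received RAS-pathway inhibitors with or without a second targeted drug. Dosing followed half-log dilutions from clinically achievable levels.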

[1] = curve of first compound, second compound 0.0316 µM
[2] = curve of first compound, second compound 0.1 µM
[3] = curve of first compound, second compound 0.316 µM
[4] = curve of first compound, second compound 1 µM
[5] = curve of first compound, second compound 3.16 µM
[6] = curve of first compound, second compound 10 µM
[7] = second compound 0.0316 µM, first compound 0.0316 µM
[8] = second compound 0.0316 µM, first compound 0.1 µM
[9] = second compound 0.0316 µM, first compound 0.316 µM
[10] = second compound 0.0316 µM, first compound 1 µM
[11] = second compound 0.1 µM, first compound 0.0316 µM
[12] = second compound 0.1 µM, first compound 0.1 µM
[13] = second compound 0.1 µM, first compound 0.316 µM
[14] = second compound 0.1 µM, first compound 1 µM
[15] = second compound 0.316 µM, first compound 0.0316 µM
[16] = second compound 0.316 µM, first compound 0.1 µM
[17] = second compound 0.316 µM, first compound 0.316 µM
[18] = second compound 0.316 µM, first compound 1 µM
[19] = second compound 1 µM, first compound 0.0316 µM
[20] = second compound 1 µM, first compound 0.1 µM
[21] = second compound 1 µM, first compound 0.316 µM
[22] = second compound 1 µM, first compound 1 µM
[23] = second compound 3.16 µM, first compound 0.0316 µM
[24] = second compound 3.16 µM, first compound 0.1 µM
[25] = second compound 3.16 µM, first compound 0.316 µM
[26] = second compound 3.16 µM, first compound 1 µM
[27] = second compound 10 µM, first compound 0.0316 µM
[28] = second compound 10 µM, first compound 0.1 µM
[29] = second compound 10 µM, first compound 0.316 µM
[30] = second compound 10 µM, first compound 1 µM

CCN1CCN(Cc2ccc(Nc3ncc(F)c(-c4cc(F)c5nc(C)n(C(C)C)c5c4)n3)nc2)CC1 + CNCc1ccccc1-c1csc(C(C)Nc2nc(C)nc3cc(OC)c(OC)cc23)c1
pIC50 [1]: < 6.00
pIC50 [2]: < 6.00
pIC50 [3]: < 6.00
pIC50 [4]: < 6.00
pIC50 [5]: 6.25
pIC50 [6]: > 8.50
viability, T/C (second compound 0.0316 µM, first compound 0.00316 µM): 100%
viability, T/C (second compound 0.0316 µM, first compound 0.01 µM): 93.7%
viability, T/C [7]: 68.7%
viability, T/C [8]: 96.5%
viability, T/C [9]: 107%
viability, T/C [10]: 140%
viability, T/C (second compound 0.1 µM, first compound 0.00316 µM): 91%
viability, T/C (second compound 0.1 µM, first compound 0.01 µM): 96.2%
viability, T/C [11]: 83%
viability, T/C [12]: 85.6%
viability, T/C [13]: 107%
viability, T/C [14]: 155%
viability, T/C (second compound 0.316 µM, first compound 0.00316 µM): 78.2%
viability, T/C (second compound 0.316 µM, first compound 0.01 µM): 97.7%
viability, T/C [15]: 79.5%
viability, T/C [16]: 92.7%
viability, T/C [17]: 102%
viability, T/C [18]: 113%
viability, T/C (second compound 1 µM, first compound 0.00316 µM): 54.9%
viability, T/C (second compound 1 µM, first compound 0.01 µM): 90.8%
viability, T/C [19]: 91.8%
viability, T/C [20]: 81.4%
viability, T/C [21]: 114%
viability, T/C [22]: 119%
viability, T/C (second compound 3.16 µM, first compound 0.00316 µM): 83.8%
viability, T/C (second compound 3.16 µM, first compound 0.01 µM): 103%
viability, T/C [23]: 95.5%
viability, T/C [24]: 92.8%
viability, T/C [25]: 123%
viability, T/C [26]: 0.46%
viability, T/C (second compound 10 µM, first compound 0.00316 µM): 0.4%
viability, T/C (second compound 10 µM, first compound 0.01 µM): 0.42%
viability, T/C [27]: 0.47%
viability, T/C [28]: 0.41%
viability, T/C [29]: 0.39%
viability, T/C [30]: 0.31%

CC1OCC2(CCN(c3cnc(Sc4ccnc(N)c4Cl)c(N)n3)CC2)C1N (stereo not drawn)
pIC50 (compound alone, run of 05/05/2024): < 5.00
pIC50 (curve of compound): < 5.00

COc1cc2nccc(Oc3ccc(NC(=O)C4(C(=O)Nc5ccc(F)cc5)CC4)cc3)c2cc1OC + C=CC(=O)N1CCN(c2nc(=O)n(-c3c(C)ccnc3C(C)C)c3nc(-c4c(O)cccc4F)c(F)cc23)C(C)C1
pIC50 [1]: < 5.00
pIC50 [2]: 5.21
pIC50 [3]: 5.12
pIC50 [4]: 5.02
pIC50 [5]: < 5.00
pIC50 [6]: 5.07
viability, T/C [7]: 66.7%
viability, T/C [8]: 102%
viability, T/C [9]: 63.2%
viability, T/C [10]: 72.4%
viability, T/C (second compound 0.0316 µM, first compound 3.16 µM): 77.2%
viability, T/C (second compound 0.0316 µM, first compound 10 µM): 51.5%
viability, T/C [11]: 61.5%
viability, T/C [12]: 71%
viability, T/C [13]: 89.2%
viability, T/C [14]: 92.6%
viability, T/C (second compound 0.1 µM, first compound 3.16 µM): 91.7%
viability, T/C (second compound 0.1 µM, first compound 10 µM): 27.8%
viability, T/C [15]: 79.2%
viability, T/C [16]: 108%
viability, T/C [17]: 96.6%
viability, T/C [18]: 80.6%
viability, T/C (second compound 0.316 µM, first compound 3.16 µM): 83.3%
viability, T/C (second compound 0.316 µM, first compound 10 µM): 40.2%
viability, T/C [19]: 87%
viability, T/C [20]: 89.5%
viability, T/C [21]: 111%
viability, T/C [22]: 92.4%
viability, T/C (second compound 1 µM, first compound 3.16 µM): 92.6%
viability, T/C (second compound 1 µM, first compound 10 µM): 48.2%
viability, T/C [23]: 103%
viability, T/C [24]: 124%
viability, T/C [25]: 129%
viability, T/C [26]: 88%
viability, T/C (second compound 3.16 µM, first compound 3.16 µM): 84.2%
viability, T/C (second compound 3.16 µM, first compound 10 µM): 56.9%
viability, T/C [27]: 112%
viability, T/C [28]: 102%
viability, T/C [29]: 109%
viability, T/C [30]: 97.9%
viability, T/C (second compound 10 µM, first compound 3.16 µM): 123%
viability, T/C (second compound 10 µM, first compound 10 µM): 40.7%

CC(C)n1nc(-c2ccc3oc(N)nc3c2)c2c(N)ncnc21
viability, T/C (compound 0.001 µM): 68.3% [middle of 5 runs]
viability, T/C (compound 0.00316 µM): 51.2% [middle of 5 runs]
viability, T/C (compound 0.01 µM): 47.9% [middle of 5 runs]
viability, T/C (compound 0.0316 µM): 47.5% [middle of 5 runs]
viability, T/C (compound 0.1 µM): 43.9% [middle of 5 runs]

CC(=O)Nc1cccc(-n2c(=O)n(C3CC3)c(=O)c3c(Nc4ccc(I)cc4F)n(C)c(=O)c(C)c32)c1 + CNCc1ccccc1-c1csc(C(C)Nc2nc(C)nc3cc(OC)c(OC)cc23)c1
pIC50 [1]: 7.90
pIC50 [2]: 7.92
pIC50 [3]: 7.88
pIC50 [4]: 7.88
pIC50 [5]: 7.88
pIC50 [6]: > 10.02
viability, T/C (second compound 0.0316 µM, first compound 94.9 pM): 101%
viability, T/C (second compound 0.0316 µM, first compound 0.0003 µM): 130%
viability, T/C (second compound 0.0316 µM, first compound 0.000949 µM): 113%
viability, T/C (second compound 0.0316 µM, first compound 0.003 µM): 83.6%
viability, T/C (second compound 0.0316 µM, first compound 0.00949 µM): 66.7%
viability, T/C (second compound 0.0316 µM, first compound 0.03 µM): 9.37%
viability, T/C (second compound 0.1 µM, first compound 94.9 pM): 102%
viability, T/C (second compound 0.1 µM, first compound 0.0003 µM): 109%
viability, T/C (second compound 0.1 µM, first compound 0.000949 µM): 95.5%
viability, T/C (second compound 0.1 µM, first compound 0.003 µM): 75.7%
viability, T/C (second compound 0.1 µM, first compound 0.00949 µM): 67%
viability, T/C (second compound 0.1 µM, first compound 0.03 µM): 9.94%
viability, T/C (second compound 0.316 µM, first compound 94.9 pM): 93.6%
viability, T/C (second compound 0.316 µM, first compound 0.0003 µM): 99.6%
viability, T/C (second compound 0.316 µM, first compound 0.000949 µM): 101%
viability, T/C (second compound 0.316 µM, first compound 0.003 µM): 85.9%
viability, T/C (second compound 0.316 µM, first compound 0.00949 µM): 65.4%
viability, T/C (second compound 0.316 µM, first compound 0.03 µM): 13.4%
viability, T/C (second compound 1 µM, first compound 94.9 pM): 86.5%
viability, T/C (second compound 1 µM, first compound 0.0003 µM): 103%
viability, T/C (second compound 1 µM, first compound 0.000949 µM): 92.2%
viability, T/C (second compound 1 µM, first compound 0.003 µM): 84.6%
viability, T/C (second compound 1 µM, first compound 0.00949 µM): 67.2%
viability, T/C (second compound 1 µM, first compound 0.03 µM): 7.22%
viability, T/C (second compound 3.16 µM, first compound 94.9 pM): 84.5%
viability, T/C (second compound 3.16 µM, first compound 0.0003 µM): 132%
viability, T/C (second compound 3.16 µM, first compound 0.000949 µM): 103%
viability, T/C (second compound 3.16 µM, first compound 0.003 µM): 103%
viability, T/C (second compound 3.16 µM, first compound 0.00949 µM): 70.2%
viability, T/C (second compound 3.16 µM, first compound 0.03 µM): 0.49%
viability, T/C (second compound 10 µM, first compound 94.9 pM): 0.38%
viability, T/C (second compound 10 µM, first compound 0.0003 µM): 0.41%
viability, T/C (second compound 10 µM, first compound 0.000949 µM): 0.37%
viability, T/C (second compound 10 µM, first compound 0.003 µM): 0.33%
viability, T/C (second compound 10 µM, first compound 0.00949 µM): 0.36%
viability, T/C (second compound 10 µM, first compound 0.03 µM): 0.28%
